The values below are quoted from earlier work in patent publication US11504327B1, “Method of preparing nanoparticles by hot-melt extrusion” (priority 2019, dated 2022).

The conditions of this data set: polyethoxylated oleyl alcohols; Walters et al. 1993.

With oleth-2, the “permeation enhancement of ibuprofen across human skin” value is listed as “most effective permeation enhancer”. With oleth-20, the “permeation enhancement of ibuprofen across human skin” value was “worst”.
